Results taken from patent US5973005A, “Aqueous creatine solution and process of producing a stable, bioavailable aqueous creatine solution” (priority 1998, dated 1999).
Entries after “also recorded” stand apart in the source; their conditions may differ.

Tests used:
[1] = endogenous level; cited from earlier work
[2] = acidic conditions / stomach; cited from earlier work
physchem = conditions: weakly alkaline water
Description: A 1 ml sample was analyzed by HPLC using a Shimadzu LC-10AD Liquid Chromatograph. The operating parameters are as follows:
The operating parameters are as follows:

[3] = test system: adenosine triphosphate resynthesis; conditions: in muscle, creatine phosphate versus glycogen; cited from earlier work

Row | creatine remaining, by HPLC (slightly alkaline water) | creatinine produced, by HPLC (weakly alkaline water) | degraded (physchem) [%] | SMILES | normal creatine concentration in the bloodstream [1] | conversion to creatinine under acidic conditions [2] | rate of ATP resynthesis compared to glycogen [3]
1 | about 85% | about 15% | ~15 | CN(CC(=O)O)C(=N)N [creatine, N-(aminoiminomethyl)-N-methylglycine] | about 50 μmol per liter of blood | formation of creatinine from free creatine is complete; also recorded: rapidly converts to creatinine by the acidic conditions in the stomach | 
2 |  |  |  | CN(CC(=O)O)C(=N)NP(=O)(O)O [Creatine phosphate] |  |  | nearly twice the rate
